# Experimental data taken from the supplement of paper PMC10307832.
# Legend:
# Test in all cases: relative viability (nuclei count vs DMSO), 5 days (fraction); higher = more cells survive
# [1] = compound: CN(c1ncccc1CNc1nc(Nc2ccc3c(c2)CC(=O)N3)ncc1C(F)(F)F)S(C)(=O)=O + CS(=O)(=O)N1CCN(Cc2cc3nc(-c4cccc5[nH]ncc45)nc(N4CCOCC4)c3s2)CC1 [Pictilisib] (partner 1 µM)
# How it was run: (§1)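 Five library-drug doses in √10 steps were combined with a fixed anchor-drug dose, or a single drug was given alone, by pin tool to lung cancer cell lines in 1536-well plates the day after seeding. Nuclei were stained and counted after 5 days. Relative viability is the nuclei count in treated wells over that in vehicle wells, taken as the median of duplicate plates.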
# [2] = compound: CN(c1ncccc1CNc1nc(Nc2ccc3c(c2)CC(=O)N3)ncc1C(F)(F)F)S(C)(=O)=O + Cc1nc(NC(=O)N2CCC[C@H]2C(N)=O)sc1-c1ccnc(C(C)(C)C(F)(F)F)c1 [Alpelisib] (partner 2 µM)
# How it was run: as §1
# [3] = compound: CN(c1ncccc1CNc1nc(Nc2ccc3c(c2)CC(=O)N3)ncc1C(F)(F)F)S(C)(=O)=O + N=C(N)NC(=N)NCCc1ccccc1 [Phenformin] (partner 250 µM)
# How it was run: as §1
# [4] = compound: CN(c1ncccc1CNc1nc(Nc2ccc3c(c2)CC(=O)N3)ncc1C(F)(F)F)S(C)(=O)=O + NC(=O)Nc1cc(-c2cccc(F)c2)sc1C(=O)N[C@H]1CCCNC1 [AZD7762] (partner 0.2 µM)
# How it was run: as §1
Cell Line,relative viability ([1]; first compound 0.01 µM),relative viability ([1]; first compound 0.03162 µM),relative viability ([1]; first compound 0.1 µM),relative viability ([1]; first compound 0.3162 µM),relative viability ([1]; first compound 1 µM),relative viability ([2]; first compound 0.01 µM),relative viability ([2]; first compound 0.03162 µM),relative viability ([2]; first compound 0.1 µM),relative viability ([2]; first compound 0.3162 µM),relative viability ([2]; first compound 1 µM),relative viability ([3]; first compound 0.01 µM),relative viability ([3]; first compound 0.03162 µM),relative viability ([3]; first compound 0.1 µM),relative viability ([3]; first compound 0.3162 µM),relative viability ([3]; first compound 1 µM),relative viability ([4]; first compound 0.01 µM),relative viability ([4]; first compound 0.03162 µM),relative viability ([4]; first compound 0.1 µM),relative viability ([4]; first compound 0.3162 µM),relative viability ([4]; first compound 1 µM)
201T,0.697,0.666,0.613,0.675,0.647,1.01,0.989,0.971,0.968,0.976,0.43,0.394,0.445,0.443,0.437,0.617,0.582,0.688,0.654,0.604
A-427,0.69,0.753,0.638,0.73,0.667,1.09,1.15,1.02,1.15,1.08,0.337,0.315,0.353,0.269,0.291,0.798,0.81,0.874,1.14,0.907
ABC-1,0.74,0.822,0.746,0.952,0.847,0.777,1.22,1.36,0.963,0.913,0.214,0.238,0.26,0.279,0.229,0.838,0.86,0.825,0.803,1.08
BEN,0.595,0.585,0.512,0.594,0.703,1.02,1.2,1.02,1.05,1.03,0.253,0.281,0.268,0.336,0.246,0.721,0.709,0.73,0.774,0.563
CAL-12T,0.43,0.305,0.28,0.318,0.498,1.12,1.58,1.26,1.16,0.946,0.628,0.523,0.536,0.512,0.444,0.677,0.603,0.559,0.647,0.633
COR-L23,0.793,0.824,0.922,0.874,0.585,0.742,0.846,0.713,0.647,0.702,0.464,0.54,0.416,0.424,0.332,,,,,
COR-L 105,0.435,0.395,0.383,0.427,0.426,1.06,1.16,1.13,0.887,0.872,0.46,0.493,0.45,0.418,0.492,,,,,
Calu-6,0.926,0.986,0.929,0.874,0.845,0.914,0.977,0.903,1.55,0.765,,,,,,,,,,
ChaGo-K-1,0.753,0.518,0.973,,1.15,,,,,,0.489,0.444,0.461,0.489,0.404,0.932,0.856,0.873,0.917,0.853
EBC-1,0.365,0.325,0.391,0.36,0.305,0.869,0.885,0.877,0.948,0.654,,,,,,,,,,
EKVX,0.462,0.422,0.418,0.375,0.431,0.771,0.905,0.859,0.812,0.864,0.251,0.236,0.24,0.231,0.24,0.723,0.676,0.747,0.838,0.748
EMC-BAC-2,0.576,0.505,0.465,0.528,0.5,0.761,0.811,0.68,0.698,0.676,0.628,0.568,0.496,0.551,0.452,1.17,1.08,1.1,1.11,1.14
EPLC-272H,0.256,0.269,0.298,0.209,0.336,0.811,1.1,0.781,0.885,0.927,0.307,0.309,0.339,0.327,0.345,0.273,0.174,0.211,0.331,0.291
H3255,0.422,0.537,0.413,0.505,0.382,1.04,0.853,0.617,0.468,0.772,0.34,0.339,0.316,0.384,0.342,0.938,0.871,0.935,0.934,0.81
HARA,0.305,0.556,0.365,0.544,0.377,0.733,0.79,0.744,0.695,0.625,0.449,0.5,0.532,0.432,0.356,0.49,0.351,0.368,0.355,0.455
HCC-15,0.817,0.68,0.711,0.716,0.622,0.849,0.892,0.819,0.785,0.779,0.492,0.501,0.463,0.384,0.405,1.31,1.39,1.04,1.23,1.21
HCC-44,0.478,0.623,0.617,0.678,0.658,0.872,0.792,0.789,0.824,0.778,0.193,0.171,0.297,0.239,0.316,0.948,1.02,0.969,0.967,0.964
HCC-78,0.228,0.167,0.216,0.188,0.165,0.368,0.407,0.285,0.361,0.31,0.67,0.662,0.563,0.566,0.573,0.859,0.646,0.644,0.565,0.521
